# Assay results reported in publication PMC10062662, “Quantitative determination of lurbinectedin, its unbound fraction and its metabolites in human plasma utilizing ultra-performance LC–MS/MS” (PLOS ONE, 2023).
# Assays:
# [1] = test system: plasma protein; assay: Plasma protein binding by rapid equilibrium dialysis (RED) in K3-EDTA plasma from donors; format: in vitro ADME, human; settings: for percent bound: 100 ng/mL, RED 8 hours 37°C
# Text: RED was considered the best alternative over other methods (e.g., ultrafiltration) to separate lurbinectedin unbound fraction (fu), due to high non-specific binding (NSB) of lurbinectedin leading to adsorption. The RED device consists of a cylinder of dialysis membrane with an 8-kDa molecular weight cut-off held in place by a polytetrafluoroethylene support; the dialysis membrane tube is closed at one end. The RED devices are disposable and used in a reusable polytetrafluoroethylene support plate (holds a maximum of 48 devices). The design of the plate and device allows for PBS to be added in such a way that it can circulate freely around the cylinder of dialysis membrane. In use, spiked plasma (400 μL) is added to the dialysis membrane cylinder part of the RED device, and PBS (600 μL) is added to the other side. The plate, device and volumes used result in a consistent fluid level across both sides of the membrane, preventing mass movement of fluid across the membrane due to hydrostatic pressure.
# Each measurement was performed using three RED devices; the devices were placed in the plate and spiked plasma and PBS were added. The plate was then mixed on an incubating microplate shaker at 100 rpm and 37°C for 8 hours.
# Both the plasma (diluted 1 in 20 with plasma:PBS 1:1, v:v) and PBS (diluted with plasma 1:1, v:v) were assayed in triplicate using the extraction and UPLC-MS/MS method described above. Transfer of the PBS from the incubation plate into an equivalent volume of plasma prior to assay was performed using pipette tips that had been pre-treated with Sigmacote®.
# In vitro PPB experiments to determine lurbinectedin fu were conducted with RED in K3-EDTA plasma from donors. Fresh plasma (not previously frozen), previously frozen plasma (fresh plasma subjected to four cycles of freeze [at -80°C ±10°C for ≥12 hours] then thawed [at room temperature for 2 hours]) and diluted fresh plasma (not previously frozen, diluted 1:1 with PBS prior to incubation) were spiked to 100 ng/mL with lurbinectedin and then equilibrated with PBS in RED devices for 8 hours at 37°C and assayed.
# In addition, the stability of lurbinectedin PPB in fresh plasma following storage at -80°C ±10°C was evaluated; aliquots of fresh plasma samples (not previously frozen) from three donors were spiked with 500 ng/mL of lurbinectedin. The samples were stored for at least 21, 30, 62 and 91 days prior to analysis; the day 0 aliquots were not frozen before analysis. The spiked aliquots from the three donors were equilibrated with PBS in RED devices in triplicate. The samples generated in the RED devices were analyzed in triplicate.
# [2] = Stability in human K3-EDTA plasma under different test conditions; format: in vitro ADME
# Experimental: Likewise, a wide range of long-term stability tests reflecting the sort of real-world storage issues that can occur in hospital-based clinical studies (e.g., short-term storage at -20°C before transfer to -80°C, availability of -60°C but not -80°C), was evaluated to ensure plasma samples are analyzed before degradation can occur. Therefore, the following plasma stability tests were performed: room temperature, freeze thaw (one cycle consisted of 2 hours at room temperature followed by freezing for at least 12 hours at -80°C ± 10°C) and long-term (at -20°C ± 5°C, -60°C ± 10°C and -80°C ± 10°C). For each stability test, two concentrations (LQC and HQC) and six replicates per level were analyzed. For acceptance criteria, the precision (%CV) was ≤15% and the bias when compared with the nominal concentration was ±15%. […]
# [3] = format: in vitro ADME; settings: 20 ng/mL
# Experimental: To ensure correct sample collection during the clinical trial procedures, whole-blood (using K3-EDTA as anticoagulant) stability was studied by spiking the blood (lurbinectedin at 20 ng/mL and M4 and M6 at 10 ng/mL). Aliquots of the whole blood were then centrifuged at 4°C for 0, 30, 60, 90 and 120 minutes post equilibration (15 minutes at 37°C) to produce plasma, which was then frozen prior to analysis. This was performed at room temperature (and in an ice bath for lurbinectedin). The derived plasma samples were analyzed in triplicate, and the criterion for acceptance was defined as having a response within ±15% of the zero-minute sample.
# [4] = Stability of stock and working solutions at -20°C; format: physicochemical; settings: -20°C ±5°C
# Experimental: The stability of stock and working solutions, as well the stability of IS stock solution, following storage at -20°C ±5°C were investigated by concordance verification by comparing the stored solution against a freshly prepared one.
# [5] = 4 freeze-thaw cycles, nom. conc. 0.3 ng/mL
# [6] = 4 freeze-thaw cycles, nom. conc. 40 ng/mL
# [7] = 37°C, 8 hours, nom. conc. 0.3 ng/mL
# [8] = 37°C, 8 hours, nom. conc. 40 ng/mL
# [9] = -20°C ±5°C, 23 days, nom. conc. 0.3 ng/mL
# [10] = -20°C ±5°C, 23 days, nom. conc. 40 ng/mL
# [11] = -60°C ±10°C, 245 days, nom. conc. 0.3 ng/mL
# [12] = -60°C ±10°C, 245 days, nom. conc. 40 ng/mL
# [13] = -80°C ±10°C, 853 days, nom. conc. 0.3 ng/mL
# [14] = -80°C ±10°C, 853 days, nom. conc. 40 ng/mL
# [15] = Ambient, 16.5 hours, nom. conc. 0.3 ng/mL
# [16] = Ambient, 16.5 hours, nom. conc. 40 ng/mL
compound,measurement,setting,value
COc1ccc2[nH]c3c(c2c1)CCN[C@]31CS[C@@H]2c3c(OC(C)=O)c(C)c4c(c3[C@H](COC1=O)N1[C@@H]2[C@H]2c3c(cc(C)c(OC)c3O)C[C@@H]([C@@H]1O)N2C)OCO4 [Lurbinectedin],percent bound,[1]; diluted fresh plasma (1:1 with PBS),99.3%
same,percent bound,[1]; fresh plasma (not previously frozen),99.6%
same,"fraction unbound at 8 h, 500 ng/mL","[1]; human, K3-EDTA plasma (fresh, from three donors), following storage at -80°C ±10°C for ≥91 days, read-out: PPB",< 0.01
same,percent bound,[1]; previously frozen plasma (four freeze-thaw cycles),99.6%
same,stability of PPB in fresh plasma following storage,"[1]; storage at -80°C ±10°C, three donors",≥ 91 days
same,Bias,[2]; [5],-4%
same,Measured conc.,[2]; [5],0.289 ng/mL
same,Bias,[2]; [6],-5%
same,Measured conc.,[2]; [6],38.0 ng/mL
same,Bias,[2]; [7],-2%
same,Measured conc.,[2]; [7],0.293 ng/mL
same,Bias,[2]; [8],1%
same,Measured conc.,[2]; [8],40.2 ng/mL
same,Bias,[2]; [9],-10%
same,Measured conc.,[2]; [9],0.271 ng/mL
same,Bias,[2]; [10],-9%
same,Measured conc.,[2]; [10],36.2 ng/mL
same,Bias,[2]; [11],-5%
same,Measured conc.,[2]; [11],0.285 ng/mL
same,Bias,[2]; [12],-10%
same,Measured conc.,[2]; [12],36.1 ng/mL
same,Bias,[2]; [13],-10%
same,Measured conc.,[2]; [13],0.269 ng/mL
same,Bias,[2]; [14],-9%
same,Measured conc.,[2]; [14],36.3 ng/mL
same,Bias,[2]; [15],-8%
same,Measured conc.,[2]; [15],0.276 ng/mL
same,Bias,[2]; [16],3%
same,Measured conc.,[2]; [16],41.0 ng/mL
same,stability in human whole K3-EDTA blood,[3],≥ 120 min
same,stability of working solution following storage for 7 days,"[4]; 5 ng/mL in DMSO:ammonium acetate 10 mM ~pH 3 (1:1, v:v)",not demonstrated
same,stability of stock solution in DMSO,[4]; 1 mg/mL in DMSO,≥ 32 days
